{"source": "patent US10172905B1", "about": "“Treatment of protein degradation disorders” (President and Fellows of Harvard College, priority 2005, dated 2019)", "key": {"[1]": {"molecular_target": "T1, interaction of HDAC6 with dynein (Homo sapiens, UniProt Q9UBN7)", "T1 sequence (Q9UBN7 1-1215)": "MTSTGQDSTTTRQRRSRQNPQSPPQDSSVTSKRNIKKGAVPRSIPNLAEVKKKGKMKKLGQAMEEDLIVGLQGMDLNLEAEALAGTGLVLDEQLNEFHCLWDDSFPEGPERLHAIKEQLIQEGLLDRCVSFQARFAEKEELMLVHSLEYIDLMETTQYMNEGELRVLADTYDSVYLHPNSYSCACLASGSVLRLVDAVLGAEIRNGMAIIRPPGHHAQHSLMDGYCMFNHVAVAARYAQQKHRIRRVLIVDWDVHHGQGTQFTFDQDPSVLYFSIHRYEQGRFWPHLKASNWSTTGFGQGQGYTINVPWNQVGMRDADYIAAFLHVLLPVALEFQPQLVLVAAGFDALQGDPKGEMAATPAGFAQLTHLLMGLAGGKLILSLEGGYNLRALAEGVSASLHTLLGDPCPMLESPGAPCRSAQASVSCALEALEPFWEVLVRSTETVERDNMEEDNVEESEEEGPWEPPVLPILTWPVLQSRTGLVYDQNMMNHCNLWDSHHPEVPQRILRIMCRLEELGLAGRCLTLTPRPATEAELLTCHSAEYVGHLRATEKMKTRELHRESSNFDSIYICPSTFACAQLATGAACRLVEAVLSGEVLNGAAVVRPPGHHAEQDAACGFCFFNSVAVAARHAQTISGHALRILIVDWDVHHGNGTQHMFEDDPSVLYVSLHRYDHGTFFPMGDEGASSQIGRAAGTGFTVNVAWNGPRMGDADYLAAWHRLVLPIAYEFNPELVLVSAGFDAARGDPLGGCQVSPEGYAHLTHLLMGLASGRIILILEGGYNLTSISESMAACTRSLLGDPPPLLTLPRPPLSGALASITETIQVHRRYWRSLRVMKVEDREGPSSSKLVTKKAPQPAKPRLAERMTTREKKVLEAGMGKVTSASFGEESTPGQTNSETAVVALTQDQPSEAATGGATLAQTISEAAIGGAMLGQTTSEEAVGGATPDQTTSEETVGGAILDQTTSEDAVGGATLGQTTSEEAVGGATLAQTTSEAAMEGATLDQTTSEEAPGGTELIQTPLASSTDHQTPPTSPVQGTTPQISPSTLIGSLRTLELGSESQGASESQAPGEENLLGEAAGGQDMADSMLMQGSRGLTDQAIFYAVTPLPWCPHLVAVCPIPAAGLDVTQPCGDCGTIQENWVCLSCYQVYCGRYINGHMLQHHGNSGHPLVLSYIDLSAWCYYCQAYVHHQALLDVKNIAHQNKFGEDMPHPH", "assay": "Co-immunoprecipitation of HDAC6 with dynein or ubiquitinated proteins", "type": "cell-based", "settings": "tubacin 2.5 and 5 μM, 8 h, MM.1S cells", "description": "(§1) Cells cultured with tubacin and/or bortezomib were harvested; washed, and lysed using lysis buffer: 50 mM Tris-HCl (pH 7.4), 150 mM NaCl, 1% NP-40, 5 mM EDTA, 5 mM NaF, 1 mM Na3VO4, 1 mM PMSF, 5 μg/ml leupeptine, and 5 μg/ml aprotinin. Whole cell lysates were subjected to SDS-PAGE, transferred to nitrocellulose membrane (Bio-Rad Laboratories, Hercules, Calif.), and immunoblotted with specific Abs (31). Western blotting was done using anti-HDAC6, acetylated lysine, acetylated histone H3, acetylated histone H4, ubiquitin (Ub), phospho-SAPK (JNK), caspase-8 caspase-9, caspase-3, and PARP Abs (Cell Signaling, Beverly, Mass.); with anti-α-tubulin Ab (Santa Cruz Biotechnology, Santa Cruz, Calif.); as well as with anti-dynein Ab (Sigma, Saint Louis, Mo.). For immunoprecipitation, whole cell lysates were incubated with anti-Ub or dynein Abs overnight at 4° C., and then incubated with protein A/G PLUS-Agarose (Santa Cruz Biotechnology) for 2 h at 4° C., as in our prior study (31). Immunoprecipitates were then subjected to Western blotting for detection of HDAC6 and dynein."}, "MM.1S and RPMI8226 cells": {"tested_on": "MM.1S and RPMI8226 cells", "assay": "[3H]-thymidine uptake of MM cells adherent to BMSCs", "type": "cell-based, human", "description": "[…] DNA synthesis was measured as described above.\nAfter treatment, DNA synthesis was measured by [^3H]-thymidine (Perkin Elmer, Boston Mass.) uptake, as previously described (44). All experiments were performed in quadruplicate."}, "breast cancer cells": {"tested_on": "breast cancer cells", "assay": "Synergy of bortezomib and tubacin in breast cancer", "type": "cell-based"}, "MM.1S cells": {"tested_on": "MM.1S cells", "assay": "[3H]-thymidine uptake with or without IL-6", "type": "cell-based, human", "settings": "tubacin 1.25-5 μM, IL-6 5-20 ng/ml, 48 h", "description": "Proliferation was measured by ^3H-thymidine uptake. Briefly, MM cells (3×10^4 cells/well) were incubated in 96-well culture plates in the presence of media, Velcade and/or Tubacin for 48 h at 37° C. DNA synthesis was measured by [^3H]-thymidine ([^3H]-TdR, Perkin Elmer, Boston, Mass.) uptake. Cells were pulsed with [^3H]TdR (0.5 μCi/well) during the last 8 h of 48 h cultures. All experiments were performed in triplicate."}, "[2]": {"tested_on": "rat astrocytes and striatal neurons", "assay": "Russell body formation in rat astrocytes and striatal neurons", "type": "cell-based", "settings": "previous experiments, comparable concentrations"}, "[3]": {"tested_on": "MM.1S cells and RPMI cells", "assay": "Inhibition of protein catabolism in myeloma cells", "type": "cell-based", "settings": "FIG. 18"}, "A549 lung cancer cells": {"tested_on": "A549 lung cancer cells", "settings": "previously reported; cited from earlier work"}, "HDAC6": {"molecular_target": "T2, HDAC6 (Homo sapiens, UniProt Q9UBN7)", "T2 sequence (Q9UBN7 1-1215)": "T1 sequence (Q9UBN7 1-1215)", "assay": "Western blotting with anti-acetylated lysine / HDAC6 Abs", "type": "cell-based", "set-up": "MM.1S, U266, INA-6, RPMI8226, and RPMI-LR5 MM cell lines constitutively express HDAC6; endogenous in cells; host or cells: MM.1S, RPMI8226 and other MM cell lines; MM patient BMPCs/PBMCs", "description": "MM cells were cultured with Velcade and/or Tubacin; harvested; washed; and lysed using lysis buffer: 50 mM Tris-HCl (pH 7.4), 150 mM NaCl, 1% NP-40, 5 mM EDTA, 5 mM NaF, 2 mM Na3VO4, 1 mM PMSF, 5 μg/ml leupeptine, and 5 μg/ml aprotinin. Cell lysates were subjected to SDS-PAGE, transferred to PVDF membrane (Bio-Rad Laboratories, Hercules, Calif.), and immunoblotted with Abs against specific proteins.\nas §1"}}, "note": "Entries after “also recorded” stand apart in the source; their conditions may differ."}
{"smiles": "O=C(CCCCCCC(=O)Nc1ccc([C@H]2O[C@@H](CSc3nc(-c4ccccc4)c(-c4ccccc4)o3)C[C@@H](c3ccc(CO)cc3)O2)cc1)NO", "note": "[tubacin]", "values": [{"measurement": "co-immunoprecipitation between HDAC6 and ubiquitinated proteins", "setting": "[1]", "result": "unaffected"}, {"measurement": "co-immunoprecipitation of HDAC6 with dynein", "setting": "[1]", "result": "markedly inhibited in a dose-dependent fashion; also recorded: inhibits binding of HDAC6 with dynein"}, {"measurement": "BMSC-induced [3H]-thymidine uptake / MM cell growth with BMSCs, single agent", "setting": "MM.1S and RPMI8226 cells; MM cells adherent to BMSCs, 24 h", "result": "inhibits BMSC-induced [^3H]-thymidine uptake in a dose-dependent fashion; also recorded: significantly inhibits MM.1S cell growth even in the presence of BMSCs; also recorded: inhibits paracrine MM cell growth"}, {"measurement": "effect of tubacin on bortezomib-induced inhibition of [3H]-thymidine uptake", "setting": "MM.1S and RPMI8226 cells; adherent MM.1S and RPMI8226 cells, tubacin with bortezomib", "result": "significantly enhances bortezomib-induced inhibition of [^3H]-thymidine uptake; also recorded: further augmented cytotoxicity of Velcade"}, {"measurement": "synergy with bortezomib in breast cancer", "setting": "breast cancer cells", "result": "synergy"}, {"measurement": "growth inhibitory / cytotoxic effect of tubacin in the presence of IL-6", "setting": "MM.1S cells", "result": "maintained; also recorded: did not overcome"}, {"measurement": "Russell body formation", "setting": "[2]", "result": "features suggestive of Russell body formation"}, {"measurement": "inhibition of protein catabolism", "setting": "[3]", "result": "potent inhibitors of protein catabolism"}, {"measurement": "histone acetylation, transcriptional profile, cell cycle, viability", "setting": "A549 lung cancer cells", "result": "no effect on histone acetylation, the transcriptional profile, cell cycle, or viability of A549 lung cancer cells"}, {"measurement": "acetylation of α-tubulin", "setting": "HDAC6; MM cell lines (MM.1S, RPMI8226), tubacin up to 5 μM, 24 h", "result": "significantly induces aceylation of α-tubulin in a dose-dependent fashion; also recorded: causes tubulin hyperacetylation; also recorded: specifically induces acetylation of t-tubulin in a dose-dependent fashion; also recorded: specifically induces acetylation of α-tubulin"}, {"measurement": "acetylation of tubulin in BMPCs", "setting": "HDAC6; tubacin 5 μM, 12 h, BMPCs of an MM patient", "result": "markedly enhanced"}, {"measurement": "acetylation of tubulin in PBMCs", "setting": "HDAC6; tubacin 5 μM, 12 h, PBMCs of the same MM patient", "result": "but not in PBMCs"}, {"measurement": "time of peak acetylation of α-tubulin", "setting": "HDAC6; tubacin 5 μM, RPMI8226 cells", "result": 12, "unit": "h"}, {"measurement": "expression of HDAC6", "setting": "HDAC6; tubacin treatment (data not shown)", "result": "not altered"}]}
